Test results: patent US20250073201A1, “COMPOSITIONS AND METHODS FOR TREATING ACUTE ALCOHOL INTAKE” (NEXT LEVEL HEALTH SCIENCES INC, priority 2021, published 2025)

System: hangover symptoms
Assay: Testing of composition components on alcohol-induced (hangover) symptoms
Type: in vivo, human
Experimental: To test, various components of the compositions disclosed herein, individuals were selected to test the efficacy of various formulations. The scale employed during the testing of alcohol-induced symptoms was as follows: (a) no symptoms; (b) very mild symptoms; (c) mild symptoms; (d) moderate symptoms; (e) severe symptoms; and/or (f) very severe symptoms. […] The testing was carried out by a person of average size and build consuming standard alcoholic drinks (e.g., a beer) and the components below were consumed generally prior to consumption of alcohol. […]

[1] = man of average size, standard alcoholic drinks, taken prior to alcohol

## O=C1c2c(O)cc(O)cc2O[C@H](c2cc(O)c(O)c(O)c2)[C@H]1O [DHM, dihydromyricetin]
3 drinks, 300 mg DHM (without DHM: very mild symptoms)
  alcohol-induced symptoms: elimination of all symptoms
3 drinks, less than 300 mg DHM (without DHM: very mild symptoms)
  alcohol-induced symptoms: no reduction of symptoms
6 drinks, 300 mg DHM (without DHM: moderate symptoms)
  alcohol-induced symptoms: reduction to mild symptoms
6 drinks, 750 mg DHM (without DHM: moderate symptoms)
  alcohol-induced symptoms: reduction to very mild symptoms
6 drinks, 1200 mg DHM (without DHM: moderate symptoms)
  alcohol-induced symptoms: elimination of all symptoms
9 drinks, 300 mg DHM (without DHM: severe symptoms)
  alcohol-induced symptoms: no reduction of symptoms
9 drinks, 750 mg DHM (without DHM: severe symptoms)
  alcohol-induced symptoms: reduction to moderate symptoms
9 drinks, 1200 mg DHM (without DHM: severe symptoms)
  alcohol-induced symptoms: reduction to mild symptoms
9 drinks, 1500 mg DHM (without DHM: severe symptoms)
  alcohol-induced symptoms: reduction to very mild symptoms
9 drinks, 1850 mg DHM (without DHM: severe symptoms)
  alcohol-induced symptoms: reduction of all symptoms with the sole exception of fatigue
12 and 15 drinks, all DHM doses tested
  elimination of all symptoms: no dose of DHM, as tested, eliminated all symptoms
12 drinks, 750 mg DHM (without DHM: severe symptoms)
  alcohol-induced symptoms: no reduction of symptoms
12 drinks, 1200 mg DHM (without DHM: severe symptoms)
  alcohol-induced symptoms: no reduction of symptoms
12 drinks, 1500 mg DHM (without DHM: severe symptoms)
  alcohol-induced symptoms: reduction to moderate symptoms
12 drinks, 1850 mg DHM (1500 mg gave moderate symptoms)
  alcohol-induced symptoms: no further reduction in symptoms
12 drinks, 2400 mg DHM (1500 mg gave moderate symptoms)
  alcohol-induced symptoms: no further reduction in symptoms
15 drinks, 1500 mg DHM (without DHM: very severe symptoms)
  alcohol-induced symptoms: no reduction of symptoms
15 drinks, 1850 mg DHM (without DHM: very severe symptoms)
  alcohol-induced symptoms: reduction to severe symptoms
15 drinks, 2400 mg DHM (1850 mg gave severe symptoms)
  alcohol-induced symptoms: no further reduction of symptoms
15 drinks, 3600 mg DHM (1850 mg gave severe symptoms)
  alcohol-induced symptoms: no further reduction of symptoms
18 drinks, 1850 mg DHM (without DHM: very severe symptoms)
  alcohol-induced symptoms: no reduction of symptoms
18 drinks, 2400 mg DHM (without DHM: very severe symptoms)
  alcohol-induced symptoms: no reduction of symptoms
18 drinks, 3600 mg DHM (without DHM: very severe symptoms)
  alcohol-induced symptoms: no reduction of symptoms
18 drinks, 5000 mg DHM (without DHM: very severe symptoms)
  alcohol-induced symptoms: no reduction of symptoms
[1]
  dosage above which no additional benefits were seen: about 1850 mg
  dosage at which benefits on hangover symptoms begin: about 300 mg
